Here are results for 3 compounds from US4782070A, “Cerebral dysfunction therapeutic agent, which comprises a dihydropyridine compound” (Fujisawa Pharmaceutical Co., Ltd., priority 1986, dated 1988).

For assay [1], the system named is Production of Lipid Peroxide in cerebral mitochondria of rat. Put plainly: Effect on Production of Lipid Peroxide in cerebral mitochondria of rat. The following applies: 37° C., 1 hour. In kind it is biochemical, male Wistar rats. The protocol: Cerebral mitochondria of male Wistar rats were isolated and mixed with a mixture of ascorbic acid (100 μM), ferrous sulfate (10 μM), ferric sulfate (20 μM) and test compound, and the mixture was incubated at 37° C. for 1 hour. The amount of malondialdehyde produced in the incubated mixture was measured by thiobarbituric acid method [Shimada et al., Biochim. Biophy. Acta, vol. 489, pp 163-172 (1977)].

Assay [2] has as its system ischemic cerebral cortex of rat. The assay is described as follows: Effect on blood flow in ischemic cerebral cortex of rat. In kind it is in vivo, Male Wistar rats. The following applies: po; for Increase in Blood Flow (Time-course of Vasodilation in Cortex of Occlusion Side): 1 mg/kg. On the procedure:
Male Wistar rats (5 rats per group), weighing 229-300 g, were anesthetized with thiopental sodium (50 mg/kg, ip). A skin incision was made in the middle of the right external auditory canal and the orbit, and a craniectomy (diameter: 2-2.5 mm) was made, using a dental drill, in the middle of the foramen ovale and the foramen opticum. After the dura was opened, the middle cerebral artery was exposed and occluded by electrocauterization using bipolar cautery.
After closure of the surgical wound, aminobenzylpenicillin (200 mg/kg) was divisionally administered into the operated part and subcutaneously.
One week after the surgery, the rats were anesthetized with urethane (1.25 g/kg, sc) and cannulae for artificial respiration and for measurement of blood pressure were inserted into the trachea and into the right femoral artery respectively, and then a stomach tube for administration of test compounds was inserted into stomach. The rats were fixed to stereotactic head-holders and craniectomies (diameter: 0.5 mm) were made on both sides of parietal skull, and then electrodes for measurement of local cerebral blood flow were inserted into right and left cerebral cortex (A=5, L=±5.0, H=2).
The blood flows of the ischemic (occlusion side) and non-ischemic (non-occlusion side) cerebral cortex of the rats used in this test were 17.4±4.5 and 51.4±1.2 ml/brain 100 g/minute, respectively. Test Compounds were dissolved in 100% polyethylene glycol and administered orally in a volume of 1 ml/kg.
The blood flow was calculated according to the following calculating formula after obtaining a half life (t1/2) from the clearance curve. [formula] λ: partition coefficient of hydrogen gas between blood and tissues (=1.0)
t1/2: a half life of concentration of hydrogen gas in brain

A further assay concerns vertebral artery of dog. Put plainly: Effect on blood flow of the vertebral artery of dog. In kind it is in vivo, Mongrel dogs. The protocol: Mongrel dogs of either sex (5-10 dogs per group), weighing 8-18 kg, were anesthetized with pentobarbital sodium (35 mg/kg, ip) and an electromagnetic flowprobe was fitted to the right vertebral artery and the blood flow of the vertebral artery was measured by a flow meter. Polyethylene cannulae were inserted into the femoral artery for measurement of blood pressure and into the femoral vein or the duodenum (after celiotomy) for administration of test compounds respectively.
Test compounds were dissolved in a mixture of ethanol, polyethylene glycol and distilled water, and administered in a volume of 0.2 ml/kg (iv) or 0.5 ml/kg (id). Incidentally, dogs were fasted for 18 hours in case of intraduodenum administration.

The next assay concerns basilar artery. Put plainly: Remitting effect on a model of vasospasm after subarachnoid hemorrhage. The settings on record: femoral vein. In kind it is in vivo, Mongrel cats. On the procedure:
Mongrel cats of either sex (3-5 cats per group) were anesthetized with pentobarbital sodium (60 mg/kg, sc) and tracheal cannulae were inserted, and the test was carried out under spontaneous respiration. Following transcervical, transclival approach, the canine basilar artery was exposed by opening the dura and arachnoid maters, using an operating microscope. 30 Minutes after the surgery, a mixture of an equal volume of blood and cerebrospinal fluid (CSF) (0.2 ml) preincubated under an aseptic condition (37° C., 6-7 days) was applied on the surface of canine basilar artery. At the same time, the test compound [dissolved in a mixture of ethanol, polyethylene glycol and distilled water (2:1:7, v/v/v), administration volume: 0.2 ml] or only vehicle was administered into the right femoral vein. After 10 minutes, the blood-CSF mixture was carefully removed and microphotographs of the canine basilar artery were taken with the passage of time, and the inside diameter of the artery was measured from the microphotographs.

The subject of assay [3] is isolated canine basilar artery. Put plainly: Effect on isolated canine basilar artery (relaxation of KCl contraction). On the set-up: species or system mongrel dogs. The following applies: Canis lupus familiaris; dose inducing 50% relaxation; contraction by 35 mM KCl; papaverine 0.1 mM = 100%; mean±standard error; read-out: ED50 (the source's name). On the procedure: Under pentobarbital sodium anesthesia (35 mg/kg, ip or 30 mg/kg, iv), the basilar arteries (outside diameter: 1.0-1.5 mm) were isolated from mongrel dogs (weighing 8-18 kg) of either sex (6 dogs per group) and cut spirally (width 1 mm×length 15-20 mm). The spiral strips were suspended in a Tyrode's solution aerating with a gas mixture of 95% oxygen and 5% carbon dioxide, and the resting tension was adjusted to 0.5 g. After 1 hour, 35 mM potassium chloride was added to the organ bath to contract the arteries. The cumulative concentrations of the test compound, dissolved in a mixture of ethanol, polyethylene glycol and distilled water, were then added. Finally 0.1 mM papaverine was given to determine maximum relaxation.

For another assay, the system named is cerebral circulation. The settings on record: cited from earlier work.
For the next assay, the system named is ischemic brain. The settings on record: Occluded rat, 1.0 mg/kg sc once a day for 3 days.
Assay [4] relates to rat with transient cerebral ischemia. The settings on record: cited from earlier work.

Protocol for ischemic brain: Test compounds (1.0 mg/kg) (dissolved in polyethylene glycol, administration volume: 1 ml/kg) or vehicle was administered sc once a day for 3 days beginning from the fifth day after the surgery. One hour after the last administration, the rats were frozen in liquid nitrogen and then the whole brains of the both side excluding the cerebellum were isolated separately. The right hemisphere was homogenized with ice-cooled 6% perchloric acid (20 times in volume), centrifuged (3000 r.p.m., 10 minutes at 4° C.) and then the supernatant was neutralized with 5M potassium carbonate.
After the neutralization, the supernatant was centrifuged again and the concentrations of adenosine triphosphate (ATP) and lactic acid included in the resulting supernatant were measured by enzymatic assay.

For the compound `COC(=O)C1=C(C#N)NC(C)=C(C(=O)OC(C)C)C1c1cccc([N+](=O)[O-])c1` (stereo not drawn) [Dihydropyridine Compound A, Isopropyl ester of 6-cyano-5-methoxycarbonyl-2-methyl-4-(3-nitrophenyl)-1,4-dihydropyridine-3-carboxylic acid], the “Inhibition of Production of Lipid Peroxide” value in assay [1] (2.6 × 10^-4 (M)) stood at 100.0%; in assay [1] (2.6 × 10^-5 (M)), 96.94 ± 1.03%. Further, the “Increase in Blood Flow (Time-course of Vasodilation in Cortex of Occlusion Side)” value in assay [2] (15 minutes) is recorded as 17.8 ± 2.4%; in assay [2] (30 minutes) it was 27.4 ± 3.7%; in assay [2] (45 minutes), 32.6 ± 4.6%; in assay [2] (60 minutes), 28.3 ± 2.5%; in assay [2] (90 minutes), 21.6 ± 6.4%; in assay [2] (120 minutes), 17.5 ± 7.3%. Besides, the “Maximum Increase in Blood Flow” value was determined as 13.6 ± 1.7% in assay [2] (Non-occlusion side, 0.1 mg/kg); 26.1 ± 4.8% in assay [2] (Non-occlusion side, 1.0 mg/kg); 12.6 ± 3.1% in assay [2] (Occlusion side, 0.1 mg/kg); 32.6 ± 4.6% in assay [2] (Occlusion side, 1.0 mg/kg). The “Time-course of Changes of Blood Flow” value with vertebral artery of dog (32 μg/kg, iv, 5 minutes) is given as 109.6 ± 18.3%; with vertebral artery of dog (32 μg/kg, iv, 10 minutes), 96.7 ± 16.2%; in the assay on vertebral artery of dog (32 μg/kg, iv, 20 minutes) it was 81.3 ± 15.5%; in the assay on vertebral artery of dog (32 μg/kg, iv, 30 minutes), 77.7 ± 12.5%; with vertebral artery of dog (32 μg/kg, iv, 60 minutes) it was 71.2 ± 17.5%; in the assay with vertebral artery of dog (32 μg/kg, iv, 90 minutes) it was 61.4 ± 25.7%. The “Time-course of Changes of Blood Flow” value in the assay on vertebral artery of dog (32 μg/kg, iv, 120 minutes) was 52.1 ± 23.1%; in the assay with vertebral artery of dog (32 μg/kg, iv, 180 minutes), 31.0 ± 15.7%. In addition, the “Maximum Changes of Blood Flow” value is 17.2 ± 6.0% in the assay on vertebral artery of dog (id, 10 μg/kg); 39.7 ± 13.1% with vertebral artery of dog (id, 32 μg/kg); 89.3 ± 11.5% with vertebral artery of dog (id, 100 μg/kg); 39.2 ± 7.2% in the assay on vertebral artery of dog (iv, 3.2 μg/kg); 86.4 ± 20.6% with vertebral artery of dog (iv, 10 μg/kg); 109.6 ± 18.3% in the assay with vertebral artery of dog (iv, 32 μg/kg). The “Time-course of Changes of the Diameter of the Artery” value with basilar artery (10 μg/kg, 15 minutes) is listed as 17.0 ± 4.5%; in the assay with basilar artery (10 μg/kg, 30 minutes), 17.1 ± 4.6%; with basilar artery (10 μg/kg, 45 minutes), 18.3 ± 5.3%; in the assay on basilar artery (10 μg/kg, 60 minutes), 17.8 ± 3.8%; with basilar artery (10 μg/kg, 90 minutes), 15.5 ± 3.2%; with basilar artery (10 μg/kg, 120 minutes), 17.1 ± 5.1%. Moreover, the “Time-course of Changes of the Diameter of the Artery” value in the assay on basilar artery (100 μg/kg, 15 minutes) was found to be 16.6 ± 7.6%; with basilar artery (100 μg/kg, 30 minutes) it was 15.1 ± 5.1%; with basilar artery (100 μg/kg, 45 minutes) it was 25.9 ± 7.5%; in the assay with basilar artery (100 μg/kg, 60 minutes), 24.4 ± 7.5%; in the assay on basilar artery (100 μg/kg, 90 minutes) it was 21.6 ± 7.3%; in the assay on basilar artery (100 μg/kg, 120 minutes) it was 25.5 ± 7.9%. Besides, the EC50 in assay [3] came to 0.33 ± 0.04 nM.

As for `COC(=O)C1=C(C)NC(C)=C(C(=O)OCCN(C)Cc2ccccc2)C1c1cccc([N+](=O)[O-])c1` (stereo not drawn) [Nicardipine, reference compound], in the assay with cerebral circulation, the “duration of improving activity of cerebral circulation” value is recorded as “short”. Moreover, the “improving activity of cerebral circulation” value in the assay on cerebral circulation was “have improving activity of cerebral circulation”. In addition, the “Increase in Blood Flow (Time-course of Vasodilation in Cortex of Occlusion Side)” value in assay [2] (15 minutes) is given as 6.2 ± 1.8%; in assay [2] (30 minutes), 13.4 ± 2.8%; in assay [2] (45 minutes), 15.9 ± 2.5%; in assay [2] (60 minutes), 11.6 ± 2.9%; in assay [2] (90 minutes), 8.8 ± 4.2%; in assay [2] (120 minutes), 9.1 ± 5.3%. In addition, the “Maximum Increase in Blood Flow” value was found to be 8.9 ± 3.2% in assay [2] (Non-occlusion side, 0.1 mg/kg); 20.5 ± 5.1% in assay [2] (Non-occlusion side, 1.0 mg/kg); 6.4 ± 1.3% in assay [2] (Occlusion side, 0.1 mg/kg); 15.9 ± 2.5% in assay [2] (Occlusion side, 1.0 mg/kg). Moreover, the “Time-course of Changes of Blood Flow” value in the assay on vertebral artery of dog (32 μg/kg, iv, 5 minutes) came out at 91.7 ± 14.8%; in the assay with vertebral artery of dog (32 μg/kg, iv, 10 minutes), 73.4 ± 15.2%; in the assay with vertebral artery of dog (32 μg/kg, iv, 20 minutes) it was 48.1 ± 13.2%; in the assay on vertebral artery of dog (32 μg/kg, iv, 30 minutes), 37.0 ± 10.4%; in the assay on vertebral artery of dog (32 μg/kg, iv, 60 minutes), 23.0 ± 17.7%; in the assay with vertebral artery of dog (32 μg/kg, iv, 90 minutes) it was 8.2 ± 10.8%. Moreover, in the assay on vertebral artery of dog (32 μg/kg, iv, 120 minutes), the “Time-course of Changes of Blood Flow” value was -0.5 ± 8.9%. Besides, the “Maximum Changes of Blood Flow” value with vertebral artery of dog (id, 320 μg/kg) is 33.7 ± 14.3%; in the assay with vertebral artery of dog (id, 1000 μg/kg), 56.0 ± 28.5%; in the assay on vertebral artery of dog (id, 3200 μg/kg), 131.3 ± 36.0%; in the assay on vertebral artery of dog (iv, 3.2 μg/kg) it was 31.4 ± 5.2%; in the assay on vertebral artery of dog (iv, 10 μg/kg) it was 77.8 ± 17.4%; in the assay on vertebral artery of dog (iv, 32 μg/kg), 91.7 ± 14.8%. In addition, the EC50 in assay [3] was 0.7 ± 0.07 nM. Besides, the ATP with ischemic brain (vehicle 1.97 ± 0.06, normal rat 2.38 ± 0.13) was 1.92 ± 0.11 μmol/brain 1 g. In the assay on ischemic brain (vehicle 3.84 ± 0.28, normal rat 1.83 ± 0.18), the Lactic acid was 3.84 ± 0.14 μmol/brain 1 g.

Regarding `COCCOC(=O)C1=C(C)NC(C)=C(C(=O)OC(C)C)C1c1cccc([N+](=O)[O-])c1` (stereo not drawn) [nimodipine], in the assay on cerebral circulation, the “improving activity of cerebral circulation” value was “have improving activity of cerebral circulation”. Besides, in assay [4] (after reperfusion), the “brain ATP content after reperfusion” value is on record as “improves” and the electroencephalogram after reperfusion result was “improves”. Besides, the “electroencephalogram and brain ATP content during ischemia” value in assay [4] (during ischemia) is recorded as “not improve them during ischemia”. Further, in assay [4] (same model), the “liberation of free fatty acids” value is listed as “no effect”.
